Source: PubChem BioAssay AID212 (DTP/NCI, 2004)
“And” between values parts separate entries of the source, which are not always exact repeats. Identical values can stand only once. Records with an inconclusive call do not appear.

Tested on: BDF1 mice, colon carcinoma 38 sc, T/C %
Assay: NCI In Vivo Anticancer Drug Screen. Data for tumor model Colon Carcinoma 38 (subcutaneous) in B6D2F1 (BDF1) mice
Settings: endpoint: median tumor weight (est.), higher = larger tumour
In short: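 Ratio of survival or tumor size, compound-treated animals relative to vehicle controls, in tumor-bearing mice.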

[1] = dose: 12.5 mg/kg/injection, schedule: Q07DX002 (ip), vehicle: saline with Tween-80
[2] = dose: 25.0 mg/kg/injection, schedule: Q07DX002 (ip), vehicle: saline with Tween-80
[3] = dose: 50.0 mg/kg/injection, schedule: Q07DX002 (ip), vehicle: saline with Tween-80
[4] = dose: 100.0 mg/kg/injection, schedule: Q07DX002 (ip), vehicle: saline with Tween-80
[5] = dose: 400.0 mg/kg/injection, schedule: Q07DX002 (ip), vehicle: saline with Tween-80
[6] = dose: 100.0 mg/kg/injection, schedule: Q07DX003 (ip), vehicle: saline
[7] = dose: 50.0 mg/kg/injection, schedule: Q07DX002 (ip), vehicle: Klucel (hydroxypropylcellulose) (HPC)
[8] = dose: 200.0 mg/kg/injection, schedule: Q07DX002 (ip), vehicle: Klucel (hydroxypropylcellulose) (HPC)
[9] = dose: 400.0 mg/kg/injection, schedule: Q07DX002 (ip), vehicle: Klucel (hydroxypropylcellulose) (HPC)
[10] = dose: 12.5 mg/kg/injection, schedule: Q07DX002 (ip), vehicle: Klucel (hydroxypropylcellulose) (HPC)
[11] = dose: 200.0 mg/kg/injection, schedule: Q07DX002 (ip), vehicle: saline with Tween-80

In the case of `COc1cc(Cc2nccc3cc(OC)c(OC)cc23)c(C(C)=O)cc1OC`, the T/C (dose: 12.5 mg/kg/injection, schedule: Q07DX002 (ip), vehicle: suspension in saline) is reported as 166 % of control, the T/C (dose: 25.0 mg/kg/injection, schedule: Q07DX002 (ip), vehicle: suspension in saline) is reported as 108 % of control and the T/C (dose: 50.0 mg/kg/injection, schedule: Q07DX002 (ip), vehicle: suspension in saline) is reported as 110 % of control. For the same compound, the T/C (dose: 100.0 mg/kg/injection, schedule: Q07DX002 (ip), vehicle: suspension in saline) was 69 % of control.
`CCOC(OCC)C(=O)OCC(=O)[C@]1(O)Cc2c(O)c3c(c(O)c2[C@@H](OC2CC(N)C(O)C(C)O2)C1)C(=O)c1c(OC)cccc1C3=O` (some centres not stated) was tested, and the T/C (dose: 0.5 mg/kg/injection, schedule: Q07DX002 (ip), vehicle: water) was 85 % of control, the T/C (dose: 2.0 mg/kg/injection, schedule: Q07DX002 (ip), vehicle: water) was 107 % of control and the T/C (dose: 4.0 mg/kg/injection, schedule: Q07DX002 (ip), vehicle: water) was 88 % of control.
`O=S(=O)(N=N/C=C1\C=CC=CN1O)c1cccs1` was tested, and the T/C [1] was 85 % of control, the T/C [2] was 108 % of control and 98 % of control and the T/C [3] was 92 % of control and 100 % of control. The T/C [4] was 84 % of control and 99 % of control and the T/C [5] was 67 % of control.
With `CC(/C=N/N=C(N)N)=N\N=C(N)N` the T/C (dose: 6.25 mg/kg/injection, schedule: Q07DX003 (ip), vehicle: saline) was 66 % of control, the T/C (dose: 12.5 mg/kg/injection, schedule: Q07DX003 (ip), vehicle: saline) was 66 % of control and the T/C (dose: 25.0 mg/kg/injection, schedule: Q07DX003 (ip), vehicle: saline) was 79 % of control. The T/C [6] was 115 % of control.
With `S=C(Nc1ccc(Cl)c(Cl)c1)N1c2ccccc2-n2cccc2C1c1cccnc1` (configuration not stated) the T/C [7] was 83 % of control, the T/C [8] was 113 % of control and 95 % of control and the T/C [9] was 101 % of control.
With `CSc1ccc2c(c1)C(N1CCN(C)CC1)Cc1ccccc1S2` (configuration not stated) the T/C [3] was 68 % of control and 72 % of control.
With `COc1cccc2c1C(=N)c1c(O)c3c(c(O)c1C2=O)C[C@@](O)(C(C)=O)C[C@@H]3OC1CC(N)C(O)C(C)O1` (some centres not stated) the T/C (dose: 2.25 mg/kg/injection, schedule: Q07DX002 (ip), vehicle: saline) was 71 % of control, the T/C (dose: 4.5 mg/kg/injection, schedule: Q07DX002 (ip), vehicle: saline) was 115 % of control and the T/C (dose: 9.0 mg/kg/injection, schedule: Q07DX002 (ip), vehicle: saline) was 99 % of control.
`C[C@H]1C/C=C/[C@H]2[C@@H]3O[C@]3(C)[C@@H](C)[C@H]3[C@H](Cc4ccccc4)NC(=O)[C@]32OC(=O)O/C=C/[C@@](C)(O)C1=O` was tested, and the T/C (dose: 6.25 mg/kg/injection, schedule: Q07DX002 (ip), vehicle: Klucel (hydroxypropylcellulose) (HPC)) was 79 % of control and the T/C [10] was 88 % of control.
In the case of `O=CCC(O)C(O)C(O)CO` (configuration not stated), the T/C (dose: 600.0 mg/kg/injection, schedule: Q07DX002 (ip), vehicle: suspension in saline) is reported as 108 % of control, the T/C (dose: 1800.0 mg/kg/injection, schedule: Q07DX002 (ip), vehicle: suspension in saline) is reported as 96 % of control and the T/C (dose: 2400.0 mg/kg/injection, schedule: Q07DX002 (ip), vehicle: suspension in saline) is reported as 102 % of control. The T/C (dose: 3600.0 mg/kg/injection, schedule: Q07DX002 (ip), vehicle: suspension in saline) was 74 % of control.
`Nc1ccc(C(=O)Nc2ccccc2N)cc1` was tested, and the T/C [1] was 121 % of control, the T/C (dose: 25.0 mg/kg/injection, schedule: Q01DX007 (ip), vehicle: saline with Tween-80) was 160 % of control and the T/C (dose: 25.0 mg/kg/injection, schedule: Q01DX007 (oral), vehicle: saline with Tween-80) was 58 % of control. For the same compound, the T/C [2] was 67 % of control, the T/C (dose: 50.0 mg/kg/injection, schedule: Q01DX007 (ip), vehicle: saline with Tween-80) was 71 % of control and the T/C (dose: 50.0 mg/kg/injection, schedule: Q01DX007 (oral), vehicle: saline with Tween-80) was 78 % of control. The T/C (dose: 100.0 mg/kg/injection, schedule: Q01DX007 (ip), vehicle: saline with Tween-80) was 123 % of control, the T/C [4] was 121 % of control and the T/C (dose: 200.0 mg/kg/injection, schedule: Q01DX007 (oral), vehicle: saline with Tween-80) was 76 % of control. For the same compound, the T/C [11] was 84 % of control and the T/C (dose: 400.0 mg/kg/injection, schedule: Q01DX007 (oral), vehicle: saline with Tween-80) was 105 % of control.
With `Nc1nccc2c1ncn2C1OC(CO)C(O)C1O` (configuration not stated) the T/C (dose: 4.6 mg/kg/injection, schedule: Q03HX024 (ip), vehicle: saline with Tween-80) was 103 % of control, the T/C (dose: 9.3 mg/kg/injection, schedule: Q03HX024 (ip), vehicle: saline with Tween-80) was 114 % of control and the T/C (dose: 18.7 mg/kg/injection, schedule: Q03HX024 (ip), vehicle: saline with Tween-80) was 82 % of control and 92 % of control. For the same compound, the T/C (dose: 75.0 mg/kg/injection, schedule: Q03HX024 (ip), vehicle: saline with Tween-80) was 93 % of control.
With `C=CC(C)(C)n1cc(C2=C(O)C(=O)C(c3cn(C(C)(C)C=C)c4ccccc34)=C(O)C2=O)c2ccccc21` the T/C (dose: 5.0 mg/kg/injection, schedule: Q07DX002 (ip), vehicle: Klucel (hydroxypropylcellulose) (HPC)) was 67 % of control and 79 % of control, the T/C (dose: 10.0 mg/kg/injection, schedule: Q07DX002 (ip), vehicle: Klucel (hydroxypropylcellulose) (HPC)) was 66 % of control and 82 % of control and the T/C (dose: 20.0 mg/kg/injection, schedule: Q07DX002 (ip), vehicle: DMSO) was 87 % of control. For the same compound, the T/C (dose: 40.0 mg/kg/injection, schedule: Q07DX002 (ip), vehicle: DMSO) was 101 % of control, the T/C (dose: 80.0 mg/kg/injection, schedule: Q07DX002 (ip), vehicle: DMSO) was 41 % of control and the T/C (dose: 80.0 mg/kg/injection, schedule: Q07DX002 (ip), vehicle: Klucel (hydroxypropylcellulose) (HPC)) was 79 % of control and 81 % of control. The T/C (dose: 160.0 mg/kg/injection, schedule: Q07DX002 (ip), vehicle: Klucel (hydroxypropylcellulose) (HPC)) was 57 % of control and 70 % of control.
With `CC(C)[C@](O)(C(=O)OCC1=CC[N+]2([O-])CC[C@@H](O)[C@@H]12)[C@H](C)O` (some centres not stated) the T/C (dose: 50.0 mg/kg/injection, schedule: Q07DX003 (ip), vehicle: water) was 66 % of control, the T/C (dose: 100.0 mg/kg/injection, schedule: Q07DX003 (ip), vehicle: water) was 185 % of control and the T/C (dose: 200.0 mg/kg/injection, schedule: Q07DX002 (ip), vehicle: water) was 73 % of control. The T/C (dose: 200.0 mg/kg/injection, schedule: Q07DX003 (ip), vehicle: water) was 123 % of control, the T/C (dose: 400.0 mg/kg/injection, schedule: Q07DX002 (ip), vehicle: water) was 92 % of control and the T/C (dose: 400.0 mg/kg/injection, schedule: Q07DX003 (ip), vehicle: water) was 71 % of control. For the same compound, the T/C (dose: 800.0 mg/kg/injection, schedule: Q07DX002 (ip), vehicle: water) was 64 % of control, the T/C (dose: 800.0 mg/kg/injection, schedule: Q07DX003 (ip), vehicle: water) was 68 % of control and the T/C (dose: 1600.0 mg/kg/injection, schedule: Q07DX002 (ip), vehicle: water) was 48 % of control.
`CCC(CC)COC(=O)c1ccccc1C(=O)OCC(CC)CC` was tested, and the T/C [2] was 71 % of control, the T/C [3] was 92 % of control and the T/C [5] was 122 % of control.
With `COC1=C(OC)C(=O)C(SC/C=C(\C)CCCC(C)CCCC(C)CCCC(C)C)=CC1=O` (configuration not stated) the T/C [2] was 55 % of control, the T/C [4] was 116 % of control and the T/C [11] was 86 % of control. For the same compound, the T/C [5] was 102 % of control.
In the case of `C=C(NC(=O)C(=C)NC(=O)c1csc(C2=NC3c4csc(n4)C4NC(=O)c5csc(n5)C(C(C)(O)C(C)O)NC(=O)C5CSC(=N5)/C(=C/C)NC(=O)C(C(C)O)NC(=O)c5csc(n5)C3(CC2)NC(=O)C(C)NC(=O)C(=C)NC(=O)C(C)NC(=O)C(C(C)CC)NC2C=Cc3c(C(C)O)cc(nc3C2O)C(=O)OC4C)n1)C(N)=O` (configuration not stated), the T/C [10] is reported as 70 % of control, the T/C [7] is reported as 106 % of control and the T/C (dose: 100.0 mg/kg/injection, schedule: Q07DX002 (ip), vehicle: Klucel (hydroxypropylcellulose) (HPC)) is reported as 106 % of control. The T/C [8] was 110 % of control, the T/C [9] was 119 % of control and the T/C (dose: 400.0 mg/kg/injection, schedule: Q07DX003 (ip), vehicle: Klucel (hydroxypropylcellulose) (HPC)) was 119 % of control.
For `COc1cc2cc3c4cc(OC)c(OC)cc4cc[n+]3c(C)c2cc1OC` (tested in a mixture with another compound), the T/C (dose: 50.0 mg/kg/injection, schedule: Q07DX003 (ip), vehicle: saline) was 164 % of control, the T/C [6] was 77 % of control and 96 % of control and the T/C (dose: 400.0 mg/kg/injection, schedule: Q07DX003 (ip), vehicle: saline) was 53 % of control.
With `CC(=O)OC1C2OC3C=C(C)CCC3(CO)C(C)(C1O)C21CO1` (configuration not stated) the T/C (dose: 1.0 mg/kg/injection, schedule: Q07DX002 (ip), vehicle: saline) was 80 % of control.
